Laboratory results: patent US4820694A, “Modifications of 3-O-demethylmycinose in macrocin and lactenocin” (priority 1986, dated 1989)
Converted amounts (≈) assume the structure as drawn. Where two headings read alike, the source gives them in different places.

What was measured:
[1] = system: Streptococcus pyogenes C203; assay: protection of mice experimentally infected with S. pyogenes C203; type: in vivo; details: mice, mg/kg × 2, doses given 1 and 4 hours postinfection, read-out: ED50
Description: The formula 1 compounds have shown in vivo antimicrobial activity against experimentally-induced infections in laboratory animals. When two doses of test compound were administered to mice experimentally infected with S. pyrogenes C203, the activity observed was measured as an ED50 value [effective dose in mg/kg to protect 50% of the test animals: see Warren Wick, et al., J. Bacteriol. 81, 233-235 (1961)].
^a mg/kg × 2; doses given 1 and 4 hours postinfection

[2] = system: Streptococcus pneumoniae Park I; assay: microbe, parasite or virus in culture; type: cell-based; details: Streptococcus pneumoniae
Description: (§1) The MIC's in Table III were determined by standard agar-dilution assays. The MIC's in Table IV were obtained using conventional brothdilution microtiter tests.

[3] = system: Staphylococcus aureus S13E; assay: microbe, parasite or virus in culture; type: cell-based; details: Staphylococcus aureus, S13E
Description: as §1

[4] = system: Pasteurella multocida 17E; assay: broth-dilution microtiter MIC test; type: cell-based; details: Pasteurella multocida, 17E; broth-dilution microtiter; Bovine isolate; read-out: MIC
Description: as §1

Mycoplasma synoviae 40A = assay: broth-dilution microtiter MIC test; type: cell-based; details: Mycoplasmopsis synoviae, 40A
Description: as §1

[5] = system: Pasteurella hemolytica 41D; assay: broth-dilution microtiter MIC test; type: cell-based; details: Pasteurella, 41D; broth-dilution microtiter; read-out: MIC
Description: as §1

[6] = system: Pasteurella multocida 22A; assay: broth-dilution microtiter MIC test; type: cell-based; details: Pasteurella multocida, 22A; broth-dilution microtiter; read-out: MIC
Description: as §1

[7] = system: Mycoplasma gallisepticum 29C; assay: broth-dilution microtiter MIC test; type: cell-based; details: Mycoplasmoides gallisepticum, 29C
Description: as §1

[8] = system: Pasteurella multocida 60A; assay: broth-dilution microtiter MIC test; type: cell-based; details: Pasteurella multocida, 60A; broth-dilution microtiter; Avian isolate; read-out: MIC
Description: as §1

[9] = system: Staphylococcus aureus 19C; assay: broth-dilution microtiter MIC test; type: cell-based; details: Staphylococcus aureus, 19C
Description: as §1

[10] = system: Pasteurella multocida 40G; assay: broth-dilution microtiter MIC test; type: cell-based; details: Pasteurella multocida, 40G; broth-dilution microtiter; read-out: MIC
Description: as §1

[11] = system: Pasteurella hemolytica 23C; assay: broth-dilution microtiter MIC test; type: cell-based; details: Pasteurella, 23C; broth-dilution microtiter; read-out: MIC
Description: as §1

[12] = system: Mycoplasma gallisepticum 15E; assay: broth-dilution microtiter MIC test; type: cell-based; details: Mycoplasmoides gallisepticum, 15E
Description: as §1

[13] = system: Pasteurella multocida 68C; assay: broth-dilution microtiter MIC test; type: cell-based; details: Pasteurella multocida, 68C; broth-dilution microtiter; read-out: MIC
Description: as §1

Streptococcus sp. 19F = assay: broth-dilution microtiter MIC test; type: cell-based; details: Streptococcus, SP.19F
Description: as §1

Mycoplasma hyorhinis 29E = assay: broth-dilution microtiter MIC test; type: cell-based; details: Mycoplasma, 29E
Description: as §1

[14] = system: Pasteurella hemolytica 22C; assay: broth-dilution microtiter MIC test; type: cell-based; details: Pasteurella, 22C; broth-dilution microtiter; read-out: MIC
Description: as §1

[15] = system: Mycoplasma gallisepticum 36H; assay: broth-dilution microtiter MIC test; type: cell-based; details: Mycoplasmoides gallisepticum, 36H
Description: as §1

[16] = system: Bordetella bronchiseptica; assay: broth-dilution microtiter MIC test; type: cell-based; details: Bordetella bronchiseptica; broth-dilution microtiter; read-out: MIC
Description: as §1

[17] = system: Haemophilus influenzae 76; assay: standard agar-dilution MIC assay; type: cell-based; details: Haemophilus influenzae, 76; agar-dilution; Ampicillin-resistant strain; read-out: MIC
Description: as §1

[18] = system: Staphylococcus epidermidis EPI1; assay: standard agar-dilution MIC assay; type: cell-based; details: Staphylococcus epidermidis, EPI1
Description: as §1

[19] = system: Klebsiella pneumoniae X68; assay: standard agar-dilution MIC assay; type: cell-based; details: Klebsiella pneumoniae, X68; agar-dilution; read-out: MIC
Description: as §1

[20] = system: Haemophilus influenzae C.L.; assay: standard agar-dilution MIC assay; type: cell-based; details: Haemophilus influenzae; agar-dilution; Ampicillin-sensitive strain; read-out: MIC
Description: as §1

[21] = system: Staphylococcus epidermidis EP12; assay: standard agar-dilution MIC assay; type: cell-based
Description: as §1

[22] = system: Streptococcus Group D 9960; assay: standard agar-dilution MIC assay; type: cell-based; details: GROUPD9960, read-out: MIC
Description: as §1

Escherichia coli EC14 = assay: standard agar-dilution MIC assay; type: cell-based; details: agar-dilution, read-out: MIC
Description: as §1

[23] = system: Pseudomonas aeruginosa X239; assay: standard agar-dilution MIC assay; type: cell-based; details: Pseudomonas aeruginosa, X239; agar-dilution; read-out: MIC
Description: as §1

[24] = system: Streptococcus pyogenes C203; assay: standard agar-dilution MIC assay; type: cell-based; details: Streptococcus pyogenes, C203
Description: as §1

[25] = system: Staphylococcus aureus X400; assay: standard agar-dilution MIC assay; type: cell-based; details: Staphylococcus aureus, X400
Description: as §1

[26] = system: Streptococcus Group D X66; assay: standard agar-dilution MIC assay; type: cell-based; details: read-out: MIC
Description: as §1

[27] = system: Staphylococcus aureus V41; assay: standard agar-dilution MIC assay; type: cell-based; details: Staphylococcus aureus, V41
Description: as §1

[28] = system: Staphylococcus aureus X1.1; assay: standard agar-dilution MIC assay; type: cell-based; details: Staphylococcus aureus, X1.1
Description: as §1

**Q.** Which ED50 ([1]; C203, Oral) does the source give for `CCC1OC(=O)CC(O)C(C)C(OC2OC(C)C(OC3CC(C)(O)C(O)C(C)O3)C(N(C)C)C2OC(C)=O)C(CC=O)CC(C)C(=O)C=CC(C)=CC1COC1OC(C)C(OC(=O)COc2ccccc2)C(OC(=O)COc2ccccc2)C1OC` (stereo not drawn) [Compound 15, 2'-O-Acetyl-3'",4'"-di-O-phenoxyacetyl-macrocin] here?
**A.** The ED50 was 87.1 mg/kg.

**Q.** And the ED50 ([1]; C203, sc, Subcutaneous)?
**A.** Its ED50 is over 10 mg/kg.

**Q.** And the MIC [2]?
**A.** The MIC was 0.5 µg/mL (≈ 0.412 µM).

**Q.** And the MIC [3]?
**A.** Its MIC is 32 µg/mL (≈ 26.4 µM).

**Q.** And the MIC [4]?
**A.** The MIC was over 50 µg/mL.

**Q.** What about the MIC (Mycoplasma synoviae 40A) of the same molecule?
**A.** Its MIC is 3.12 µg/mL (≈ 2.57 µM).

**Q.** And the MIC [5]?
**A.** The MIC was over 50 µg/mL.

**Q.** What about the MIC [6] of the same molecule?
**A.** The MIC was over 50 µg/mL.

**Q.** What about the MIC [7] of the same molecule?
**A.** Its MIC is 6.25 µg/mL (≈ 5.16 µM).

**Q.** And the MIC [8]?
**A.** Its MIC is over 50 µg/mL.

**Q.** What about the MIC [9] of the same molecule?
**A.** Its MIC is 25 µg/mL (≈ 20.6 µM).

**Q.** What about the MIC [10] of the same molecule?
**A.** The MIC was over 50 µg/mL.

**Q.** And the MIC [11]?
**A.** The MIC was over 50 µg/mL.

**Q.** And the MIC [12]?
**A.** The MIC was 50 µg/mL (≈ 41.2 µM).

**Q.** And the MIC [13]?
**A.** Its MIC is over 50 µg/mL.

**Q.** And the MIC (Streptococcus sp. 19F)?
**A.** The MIC was 3.12 µg/mL (≈ 2.57 µM).

**Q.** What about the MIC (Mycoplasma hyorhinis 29E) of the same molecule?
**A.** The MIC was 6.25 µg/mL (≈ 5.16 µM).

**Q.** What about the MIC [14] of the same molecule?
**A.** The MIC was over 50 µg/mL.

**Q.** What about the MIC [15] of the same molecule?
**A.** The MIC was 50 µg/mL (≈ 41.2 µM).

**Q.** And the MIC [16]?
**A.** Its MIC is over 50 µg/mL.

**Q.** What about the MIC [17] of the same molecule?
**A.** The MIC was over 128 µg/mL.

**Q.** And the MIC [18]?
**A.** The MIC was 32 µg/mL (≈ 26.4 µM).

**Q.** And the MIC [19]?
**A.** Its MIC is over 128 µg/mL.

**Q.** What about the MIC [20] of the same molecule?
**A.** Its MIC is over 128 µg/mL.

**Q.** And the MIC [21]?
**A.** The MIC was 32 µg/mL (≈ 26.4 µM).

**Q.** What about the MIC [22] of the same molecule?
**A.** Its MIC is 32 µg/mL (≈ 26.4 µM).

**Q.** What about the MIC (Escherichia coli EC14) of the same molecule?
**A.** The MIC was over 128 µg/mL.

**Q.** What about the MIC [23] of the same molecule?
**A.** Its MIC is over 128 µg/mL.

**Q.** What about the MIC [24] of the same molecule?
**A.** Its MIC is 4 µg/mL (≈ 3.3 µM).

**Q.** And the MIC [25]?
**A.** The MIC was 64 µg/mL (≈ 52.8 µM).

**Q.** And the MIC [26]?
**A.** Its MIC is 32 µg/mL (≈ 26.4 µM).

**Q.** What about the MIC [27] of the same molecule?
**A.** The MIC was 8 µg/mL (≈ 6.6 µM).

**Q.** And the MIC [28]?
**A.** The MIC was 4 µg/mL (≈ 3.3 µM).

**Q.** What does the source list for `CCC1OC(=O)CC(O)C(C)C(OC2OC(C)C(OC3CC(C)(O)C(O)C(C)O3)C(N(C)C)C2OC(C)=O)C(CC=O)CC(C)C(=O)C=CC(C)=CC1COC1OC(C)C(OC(=O)CC(C)C)C(OC(=O)CC(C)C)C1OC` (stereo not drawn) [Compound 7, 2'-O-ACETYL-3'",4'"-di-O-isovaleryl-macrocin]?
**A.** ED50 ([1]; C203, Oral): 71.4 mg/kg; ED50 ([1]; C203, sc, Subcutaneous): > 10 mg/kg; MIC [2]: 2 µg/mL (≈ 1.8 µM); MIC [3]: 8 µg/mL (≈ 7.19 µM); MIC [4]: > 50 µg/mL; MIC (Mycoplasma synoviae 40A): 3.12 µg/mL (≈ 2.8 µM); MIC [5]: > 50 µg/mL; MIC [6]: > 50 µg/mL; MIC [7]: 3.12 µg/mL (≈ 2.8 µM); MIC [8]: > 50 µg/mL; MIC [9]: 12.5 µg/mL (≈ 11.2 µM); MIC [10]: > 50 µg/mL; MIC [11]: > 50 µg/mL; MIC [12]: 12.5 µg/mL (≈ 11.2 µM); MIC [13]: > 50 µg/mL; MIC (Streptococcus sp. 19F): 3.12 µg/mL (≈ 2.8 µM); MIC (Mycoplasma hyorhinis 29E): 6.25 µg/mL (≈ 5.62 µM); MIC [14]: > 50 µg/mL; MIC [15]: 50 µg/mL (≈ 44.9 µM); MIC [16]: > 50 µg/mL; MIC [17]: > 128 µg/mL; MIC [18]: 8 µg/mL (≈ 7.19 µM); MIC [19]: > 128 µg/mL; MIC [20]: > 128 µg/mL; MIC [21]: 8 µg/mL (≈ 7.19 µM); MIC [22]: 8 µg/mL (≈ 7.19 µM); MIC (Escherichia coli EC14): > 128 µg/mL; MIC [23]: > 128 µg/mL; MIC [24]: 4 µg/mL (≈ 3.6 µM); MIC [25]: 16 µg/mL (≈ 14.4 µM); MIC [26]: 16 µg/mL (≈ 14.4 µM); MIC [27]: 8 µg/mL (≈ 7.19 µM); MIC [28]: 8 µg/mL (≈ 7.19 µM)
